From patent US8802679B2, “Glycine compound” (Astellas Pharma Inc., priority 2009, dated 2014)
Where a name gives a salt, the structure may show the parent alone.

Key:
[1] = tested on: VAP-1 enzyme activity in plasma; assay: Plasma VAP-1 enzyme activity after oral administration to rats (radio-enzyme assay); assay type: in vivo, Wistar male rats; conditions: rat, oral 1 mg/kg; for Inhibition Ratio (%) of plasma VAP-1 activity, 1 h: 1 h after administration; for Inhibition Ratio (%) of plasma VAP-1 activity, 3 h: 3 h after administration; for Inhibition Ratio (%) of plasma VAP-1 activity, 6 h: 6 h after administration; for Inhibition Ratio (%) of plasma VAP-1 activity, 12 h: 12 h after administration
Protocol: Eight-week to twelve-week Wistar male rats were fasted for 20 hours, and orally administered with a test drug (1 mg/1 kg). Heparin blood collection from the tail vein was performed immediately before the administration, and at 1 h, 3 h, 6 h, and 12 h after the administration. The resulting blood was subjected to centrifugation at 14000 rpm for 5 minutes to separate plasma, and the VAP-1 enzyme activity in the resulting plasma was measured by a radio-enzyme assay method.
For the radio-enzyme assay method, ^14C-benzylamine which is a synthetic substrate (10 μM) was reacted with the resulting plasma at 37° C., and the resulting metabolite was extracted with a mixture of toluene/ethyl acetate. The radioactivity was measured and taken as a VAP-1 enzyme activity in the plasma. The effect of the test drug was calculated from the ratio (%) of the VAP-1 activity after the administration of the test drug relative to the VAP-1 activity in the plasma immediately before the administration (100%).

rat VAP-1 enzyme (SSAO) = rat VAP-1 enzyme (SSAO) (Rattus norvegicus (Rat), UniProt O08590); assay: Inhibitory effect on rat VAP-1 enzyme (SSAO) activity, radiochemistry-enzymatic assay with 14C-benzylamine; assay type: biochemical; conditions: enzyme from CHO cells expressing rat VAP-1; 14C-benzylamine 1×10^−5 mol/L
rat VAP-1 enzyme (SSAO), sequence (O08590 whole entry): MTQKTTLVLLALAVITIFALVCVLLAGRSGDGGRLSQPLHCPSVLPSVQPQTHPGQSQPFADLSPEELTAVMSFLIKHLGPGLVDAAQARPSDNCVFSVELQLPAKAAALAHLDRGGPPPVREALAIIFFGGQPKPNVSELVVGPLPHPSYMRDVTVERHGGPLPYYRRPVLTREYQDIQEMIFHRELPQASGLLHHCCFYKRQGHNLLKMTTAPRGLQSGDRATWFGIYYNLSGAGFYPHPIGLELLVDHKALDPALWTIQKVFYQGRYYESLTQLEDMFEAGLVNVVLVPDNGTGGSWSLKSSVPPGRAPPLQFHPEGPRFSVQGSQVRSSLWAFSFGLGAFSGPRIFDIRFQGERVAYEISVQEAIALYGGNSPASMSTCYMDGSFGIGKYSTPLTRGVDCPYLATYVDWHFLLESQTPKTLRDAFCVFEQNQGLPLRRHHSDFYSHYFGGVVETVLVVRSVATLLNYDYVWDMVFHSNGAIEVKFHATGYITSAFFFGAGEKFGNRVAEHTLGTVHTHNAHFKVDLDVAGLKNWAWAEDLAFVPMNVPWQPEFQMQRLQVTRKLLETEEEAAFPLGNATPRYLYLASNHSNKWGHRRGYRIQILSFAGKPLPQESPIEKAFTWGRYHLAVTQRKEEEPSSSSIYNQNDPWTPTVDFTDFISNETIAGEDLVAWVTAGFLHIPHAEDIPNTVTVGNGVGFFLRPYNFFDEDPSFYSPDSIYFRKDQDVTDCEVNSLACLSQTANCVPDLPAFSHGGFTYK
Protocol: Inhibitory Effect of Compound on Rat VAP-1 Enzyme (SSAO) Activity
(§1) A rat VAP-enzyme 1 (SSAO) activity was measured by a radiochemistry-enzymatic assay using ^14C-benzylamine as an artificial substrate. An enzyme suspension prepared from CHO (Chinese Hamster Ovary) cells stably expressing a rat VAP-enzyme 1 (SSAO) was preincubated with the compound of the present invention in a 96-well microplate at room temperature for 30 minutes. Subsequently, the enzyme suspension was incubated with ^14C-benzylamine (a final concentration of 1×10^−5 mol/L) to a final volume of […] at 37° C. for 1 hour. The enzymatic reaction was stopped by the addition of 2 mol/L (50 μL) of citric acid. The oxidation products were extracted directly in a 200-μL toluene scintillator, and the radioactivity was measured with a scintillation spectrometer.
(§2) In addition, the inhibitory activity is expressed in IC50 (nmol/L).

[2] = biological target: human VAP-1 enzyme (SSAO) (Homo sapiens (Human), UniProt Q16853); assay: Inhibitory effect on human VAP-1 enzyme (SSAO) activity, radiochemistry-enzymatic assay with 14C-benzylamine; assay type: biochemical; conditions: enzyme from CHO cells expressing human VAP-1; 14C-benzylamine 1×10^−5 mol/L
human VAP-1 enzyme (SSAO), sequence (Q16853 whole entry): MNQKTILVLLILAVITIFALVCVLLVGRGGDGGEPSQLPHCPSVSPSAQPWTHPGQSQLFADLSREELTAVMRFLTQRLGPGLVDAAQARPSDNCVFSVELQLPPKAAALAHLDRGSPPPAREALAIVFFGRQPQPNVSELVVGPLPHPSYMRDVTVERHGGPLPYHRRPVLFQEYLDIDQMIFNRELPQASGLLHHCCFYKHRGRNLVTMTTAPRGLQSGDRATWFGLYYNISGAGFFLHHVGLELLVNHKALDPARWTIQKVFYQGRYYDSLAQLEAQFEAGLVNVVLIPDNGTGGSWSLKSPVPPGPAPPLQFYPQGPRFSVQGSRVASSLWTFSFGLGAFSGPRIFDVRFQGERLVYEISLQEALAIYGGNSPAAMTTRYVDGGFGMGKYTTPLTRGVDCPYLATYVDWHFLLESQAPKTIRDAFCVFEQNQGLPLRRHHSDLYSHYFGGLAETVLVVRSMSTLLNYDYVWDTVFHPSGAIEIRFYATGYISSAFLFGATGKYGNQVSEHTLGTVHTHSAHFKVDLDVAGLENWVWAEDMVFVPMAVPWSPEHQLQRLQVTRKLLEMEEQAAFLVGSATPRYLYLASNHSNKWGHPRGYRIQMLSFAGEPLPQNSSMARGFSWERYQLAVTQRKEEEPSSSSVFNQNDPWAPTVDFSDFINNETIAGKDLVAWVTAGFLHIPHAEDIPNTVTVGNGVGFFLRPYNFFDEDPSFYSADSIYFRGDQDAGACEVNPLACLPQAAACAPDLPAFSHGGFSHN
Protocol: Inhibitory Effect of Compound on Human VAP-1 Enzyme (SSAO) Activity
as §1, with “human VAP-1 enzyme” for “rat VAP-enzyme 1”
as §2

Compound | Inhibition Ratio (%) of plasma VAP-1 activity, 1 h [1] [%] | Inhibition Ratio (%) of plasma VAP-1 activity, 3 h [1] [%] | Inhibition Ratio (%) of plasma VAP-1 activity, 6 h [1] [%] | Inhibition Ratio (%) of plasma VAP-1 activity, 12 h [1] [%] | IC50 (rat VAP-1 enzyme (SSAO)) [nM] | IC50 [2] [nM]
Cc1cc(CCC(=O)O)cnc1N1CCN(c2ncc(-c3cccc(CN(C)C(=O)CN)c3)cn2)CC1 [Ex 66] | 78 | 81 | 74 | 67 |  | 
CN(Cc1cccc(-c2cnc(N3CCCC3)nc2)c1)C(=O)CN [Ex 75] | 78 | 58 | 38 | 24 | 3.6 | 49
C[C@@H]1CN(c2ncc(-c3cccc(CN(C)C(=O)CN)c3)cn2)C[C@H](C)O1 [Ex 78] | 31 | 18 | 3 | −4 |  | 
CN(Cc1cccc(-c2cnc(N3CCOC(CO)C3)nc2)c1)C(=O)CN (stereo not shown) [Ex 79] | 24 | 21 | 15 | 14 | 34 | 66
C[C@@H]1CN(c2ccc(-c3cccc(CN(C)C(=O)CN)c3)cn2)C[C@H](C)O1 [Ex 80] | 48 | 43 | 26 | 21 | 39 | 81
CN(Cc1cccc(-c2cnc(N3CCC(O)CC3)nc2)c1)C(=O)CN [Ex 84] | 16 | 20 | 17 |  | 15 | 140
Cc1ncccc1N1CCN(c2ncc(-c3cccc(CN(C)C(=O)CN)c3)cn2)CC1 [Ex 91] | 68 | 68 | 68 | 44 | 12 | 18
CN(Cc1cccc(-c2cnc(N3Cc4cccnc4C3)nc2)c1)C(=O)CN [Ex 95] | 70 | 67 | 71 | 21 | 5.8 | 11
Cc1nc2c(s1)CN(c1ncc(-c3cccc(CN(C)C(=O)CN)c3)cn1)CC2 [Ex 102] | 65 | 62 | 71 | 40 | 12 | 20
CN(Cc1cccc(-c2cnc(N3CCN(c4ncccc4Cl)CC3)nc2)c1)C(=O)CN [Ex 147] | 70 | 79 | 75 | 66 | 44 | 72
CN(Cc1cccc(-c2cnc(N3CCC(c4cccnc4)CC3)nc2)c1)C(=O)CN [Ex 190] | 42 | 48 | 41 | 11 | 19 | 23
CN(Cc1cccc(-c2cnc(N3CC=C(c4cccnc4)CC3)nc2)c1)C(=O)CN [Ex 191] | 35 | 43 | 48 | 20 | 14 | 7
CN(Cc1cccc(-c2cnc(N3CCS(=O)(=O)CC3)nc2)c1)C(=O)CN [Ex 216] | 25 | −7 | 15 | 25 | 40 | 90
Cc1cccnc1N1CCN(c2ncc(-c3cccc(CN(C)C(=O)CN)c3)cn2)CC1 [Example 3, N-methyl-N-(3-{2-[4-(3-methylpyridin-2-yl)piperazin-1-yl]pyrimidin-5-yl}benzyl)glycinamide L-tartrate] | 65 | 77 | 71 | 47 | 22 | 32
CN(Cc1cccc(-c2cnc(N3CC[C@H](F)C3)nc2)c1)C(=O)CN [Example 16] | 83 | 83 | 53 | 42 | 7.4 | 49
Cc1cc(/C=C/C(=O)O)cnc1N1CCN(c2ncc(-c3cccc(CN(C)C(=O)CN)c3)cn2)CC1 [Example 19, (2E)-3-(6-{-4-[5-(3-{[glycyl(methyl)amino]methyl}phenyl)pyrimidin-2-yl]piperazin-1-yl}-5-methylpyridin-3-yl)acrylic acid dihydrochloride] | 84 | 79 | 75 | 63 | 6.9 | 6.9
CN(Cc1cccc(-c2cnc(N3CCN(c4ncc(C(=O)O)cc4Cl)CC3)nc2)c1)C(=O)CN [Example 32] | 68 | 70 | 58 | 45 | 10 | 18
